Measured values from ChEMBL document CHEMBL1142091, “Azithromycin selectively reduces tumor necrosis factor alpha levels in cystic fibrosis airway epithelial cells” (2007).
Active and inactive are the calls of the source. The rule behind the calls is not given here.

Columns and labels:
IB3-1 [1] = assay: Reduction of NF-kappaB binding to DNA in cystic fibrosis IB3-1 cells at 8 ug after 24 hrs; type: functional, Homo sapiens; set-up: scale not given: the % may be the effect or the level left
IB3-1 [2] = assay: Reduction of Sp1 binding to DNA in cystic fibrosis IB3-1 cells at 8 ug after 24 hrs; type: functional, Homo sapiens; set-up: scale not given: the % may be the effect or the level left
[3] = (§1) Reduction of NF-kappaB binding to DNA in cystic fibrosis 16HBE14o-AS3 cells at 8 ug after 24 hrs; type: functional, Homo sapiens; set-up: scale not given: the % may be the effect or the level left
[4] = Cell viability of IB3-1 cells at 8 ug/ml after 24 hrs by trypan blue exclusion test; type: functional, cell-based; conditions: Homo sapiens
[5] = (§2) Reduction of Sp1 binding to DNA in cystic fibrosis 16HBE14o-AS3 cells at 8 ug after 24 hrs; type: functional, Homo sapiens; set-up: scale not given: the % may be the effect or the level left
[6] = Reduction of TNFalpha mRNA level in cystic fibrosis 2CFSMEo cells at 8 ug after 24 hrs relative to control; type: functional, Homo sapiens; set-up: scale not given: the % may be the effect or the level left
[7] = Cell viability of 16HBE14o-AS3 cells at 16 ug/ml after 24 hrs by trypan blue exclusion test; type: functional; conditions: Homo sapiens
[8] = (§3) Reduction of NF-kappaB binding to DNA in cystic fibrosis 2CFSMEo cells at 8 ug after 24 hrs; type: functional, Homo sapiens; set-up: scale not given: the % may be the effect or the level left
[9] = Cell viability of 16HBE14o-AS3 cells at 8 ug/ml after 24 hrs by trypan blue exclusion test; type: functional; conditions: Homo sapiens
[10] = Cell viability of 16HBE14o-S1 cells at 16 ug/ml after 24 hrs by trypan blue exclusion test; type: functional, cell-based; conditions: Homo sapiens
[11] = Cell viability of C38 cells at 8 ug/ml after 24 hrs by trypan blue exclusion test
[12] = Reduction of TNFalpha protein level in cystic fibrosis 16HBE14oAS3 cells at 8 ug after 24 hrs by ELISA relative to control; type: functional, Homo sapiens; set-up: scale not given: the % may be the effect or the level left
[13] = Reduction of TNFalpha mRNA level in cystic fibrosis 16HBE14o-AS3 cells at 8 ug after 24 hrs relative to control; type: functional, Homo sapiens; set-up: scale not given: the % may be the effect or the level left
[14] = Cell viability of C38 cells at 16 ug/ml after 24 hrs by trypan blue exclusion test
[15] = Cell viability of 2CFSMEo cells at 8 ug/ml after 24 hrs by trypan blue exclusion test; type: functional; conditions: Homo sapiens
[16] = Cell viability of 2CFSMEo cells at 16 ug/ml after 24 hrs by trypan blue exclusion test; type: functional; conditions: Homo sapiens
[17] = Cell viability of 16HBE14o-S1 cells at 8 ug/ml after 24 hrs by trypan blue exclusion test; type: functional, cell-based; conditions: Homo sapiens
[18] = Cell viability of IB3-1 cells at 16 ug/ml after 24 hrs by trypan blue exclusion test; type: functional, cell-based; conditions: Homo sapiens
IB3-1 [19] = assay: Reduction of TNFalpha mRNA level in cystic fibrosis IB3-1 cells at 8 ug after 24 hrs relative to control; type: functional, Homo sapiens; set-up: scale not given: the % may be the effect or the level left
[20] = Reduction of TNFalpha protein level in cystic fibrosis 2CFSMEo cells at 8 ug after 24 hrs by ELISA relative to control; type: functional, Homo sapiens; set-up: scale not given: the % may be the effect or the level left
IB3-1 [21] = assay: Reduction of TNFalpha protein level in cystic fibrosis IB3-1 cells at 8 ug after 24 hrs by ELISA relative to control; type: functional, Homo sapiens; set-up: scale not given: the % may be the effect or the level left
[22] = (§4) Reduction of Sp1 binding to DNA in cystic fibrosis 2CFSMEo cells at 8 ug after 24 hrs; type: functional, Homo sapiens; set-up: scale not given: the % may be the effect or the level left
Homo sapiens [23] = organism: Homo sapiens; assay: as §1; type: functional
Homo sapiens [24] = organism: Homo sapiens; assay: as §2; type: functional
Homo sapiens [25] = organism: Homo sapiens; assay: as §3; type: functional
Homo sapiens [26] = organism: Homo sapiens; assay: as §4; type: functional

Compound `CC[C@H]1OC(=O)[C@H](C)[C@@H](O[C@H]2C[C@@](C)(OC)[C@@H](O)[C@H](C)O2)[C@H](C)[C@@H](O[C@@H]2O[C@H](C)C[C@H](N(C)C)[C@H]2O)[C@](C)(O)C[C@@H](C)CN(C)[C@H](C)[C@@H](O)[C@]1(C)O` [AZITHROMYCIN] has an Activity (IB3-1 [1]) of 40%, an Activity (IB3-1 [2]) of 60% and an Activity [3] of 45%. It also gave an Activity [4] greater than 95%, an Activity [5] of 64% and an Activity [6] of 30%. It also gave an Activity [7] of less than 95%, an Activity [8] of 45% and an Activity [9] greater than 95%. For the same compound, the Activity [10] was less than 95%, the Activity [11] was greater than 95% and the Activity [12] was 50%. For the same compound, the Activity [13] was 25%, the Activity [14] was less than 95% and the Activity [15] was greater than 95%. It also gave an Activity [16] of less than 95%, an Activity [17] greater than 95% and an Activity [18] of less than 95%. For the same compound, the Activity (IB3-1 [19]) was 35%, the Activity [20] was 40% and the Activity (IB3-1 [21]) was 45%. For the same compound, the Activity [22] was 65%.

With `CO[C@@H]1[C@@H](O[C@@H]2O[C@H](C)[C@@H](O[C@H]3C[C@@](C)(O)[C@@H](OC(=O)CC(C)C)[C@H](C)O3)[C@H](N(C)C)[C@H]2O)[C@@H](CC=O)C[C@@H](C)[C@@H](O)/C=C/C=C/C[C@@H](C)OC(=O)C[C@H]1OC(C)=O` the Activity (IB3-1 [1]; Homo sapiens) was “inactive”, the Activity (IB3-1 [2]; Homo sapiens) was “inactive” and the Activity (Homo sapiens [23]) was “inactive”. The Activity (Homo sapiens [24]) was “inactive”, the Activity (Homo sapiens [25]) was “inactive” and the Activity (Homo sapiens [26]) was “inactive”.
